Laboratory results reported in patent US20160257697A1, “THIOPHENE-SUBSTITUTED TETRACYCLIC COMPOUNDS AND METHODS OFUSE THEREOF FOR THE TREATMENT OF VIRAL DISEASES” (priority 2013, published 2016).
Where two headings read alike, the source gives them in different places.

Experiments:
Assay in all cases: microbe, parasite or virus in culture
Type in all cases: cell-based, Hepatitis C virus (HCV)
HCV replicon 1AY93H = details: Replicon Assay A
Method in brief: (§1)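 Replicon cells were seeded at 2000 cells/well with test compound in 0.5% DMSO and 5% FBS, then harvested on day 3. Replicon RNA was measured by multiplex TaqMan real-time RT-PCR, using cyclophilin RNA as the endogenous control and quantified against standard curves of HCV replicon total RNA.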

HCV replicon 1A = details: Replicon Assay A
Method in brief: as §1

HCV replicon 2B = details: Replicon Assay A
Method in brief: as §1

HCV replicon 1AQ30D = details: Replicon Assay B
HCV replicon 1B = details: Replicon Assay B
[1] = read-out: 1A Y93H IC50, replicon 1AY93H
[2] = Hepatitis C virus, read-out: 1A Q30D IC50 (nM), replicon 1AQ30D
[3] = read-out: 1A Y93H IC50, HCV replicon 1A Y93H
[4] = read-out: 2B IC50, HCV replicon 2B
[5] = Hepatitis C virus, read-out: 1A Q30D IC50, HCV replicon 1A Q30D
[6] = read-out: 1A Q30D IC50, replicon 1AQ30D
[7] = Hepatitis C virus, read-out: 2B IC50 (nM), replicon 2B
[8] = Hepatitis C virus, HCV replicon 1B
[9] = Hepatitis C virus, HCV replicon 1A
[10] = read-out: 1A Q30D IC50, HCV replicon 1A Q30D

SMILES	IC50 (HCV replicon 1AY93H; [1]) [nM]	IC50 (HCV replicon 1A; Hepatitis C virus, replicon 1A) [nM]	IC50 (HCV replicon 2B; read-out: 2B IC50, replicon 2B) [nM]	IC50 (HCV replicon 1B; Hepatitis C virus, replicon 1B) [nM]	IC50 (HCV replicon 1A; replicon 1A) [nM]	IC50 (HCV replicon 1AQ30D; [6]) [nM]	other results
COC(=O)NC(C(=O)N1CCC[C@H]1c1ncc(-c2ccc3c(c2)cc2n3C(c3ccc(F)s3)Oc3cc(-c4cnc([C@@H]5CCCN5C(=O)[C@@H](NC(=O)OC)C(C)C)[nH]4)cc(F)c3-2)[nH]1)C1C[C@@H](C)O[C@@H](C)C1 (single isomer, unassigned) [Compound 348]	0.0149	0.0019	0.0326	0.0027	–	–	IC50 (HCV replicon 1AQ30D; [2]): 0.387 nM
COC(=O)N[C@H](C(=O)N1CCC[C@H]1c1ncc(-c2cc(F)c3c(c2)OC(c2cc4c(s2)CCC4)n2c-3cc3cc(-c4cnc([C@@H]5C[C@H]6C[C@H]6N5C(=O)[C@@H](NC(=O)OC)C5CCOCC5)[nH]4)ccc32)[nH]1)C(C)C (single isomer, unassigned) [Compound 541]	–	–	–	–	–	–	IC50 (HCV replicon 1AY93H; [3]): 2.19 nM; IC50 (HCV replicon 1A; HCV replicon 1A): 0.0148 nM; IC50 (HCV replicon 2B; [4]): 0.096 nM; IC50 (HCV replicon 1AQ30D; [5]): 0.303 nM; IC50 (HCV replicon 1B; HCV replicon 1B): 0.0237 nM
COC(=O)N[C@H](C(=O)N1CCC[C@H]1c1ncc(-c2cc(F)c3c(c2)OC(c2ccc(C#N)s2)n2c-3cc3cc(-c4cnc([C@@H]5CCCN5C(=O)[C@@H](NC(=O)OC)C(C)C)[nH]4)ccc32)[nH]1)C(C)C (single isomer, unassigned) [Compound 18]	3.13	–	3.46	–	0.0022	66.7	IC50 (HCV replicon 1B; replicon 1B): 0.003 nM
COCCc1ccc(C2Oc3cc(-c4cnc([C@@H]5CCCN5C(=O)[C@@H](NC(=O)OC)C(C)C)[nH]4)cc(F)c3-c3cc4cc(-c5cnc([C@@H]6CCCN6C(=O)[C@@H](NC(=O)OC)C(C)C)[nH]5)ccc4n32)s1 (single isomer, unassigned) [Compound 82]	–	–	–	–	0.0011	–	IC50 (HCV replicon 1AY93H; replicon 1AY93H, read-out: 1A Y93H IC50): 0.014 nM; IC50 (HCV replicon 2B; replicon 2B, read-out: 2B IC50): 0.15 nM; IC50 (HCV replicon 1AQ30D; replicon 1AQ30D, read-out: 1A Q30D IC50): 0.26 nM; IC50 (HCV replicon 1B; replicon 1B): 0.0013 nM
COC(=O)NC(C(=O)N1CCC[C@H]1c1ncc(-c2ccc3c(c2)cc2n3C(c3cc(C)c(C)s3)Oc3cc(-c4cnc([C@@H]5CCCN5C(=O)[C@@H](NC(=O)OC)C5CCOCC5)[nH]4)cc(F)c3-2)[nH]1)C(C)(C)F (stereo partly shown) [Compound 128]	–	0.003	–	0.0036	–	–	IC50 (HCV replicon 1AY93H; Hepatitis C virus, read-out: 1A Y93H IC50 (nM), replicon 1AY93H): 0.03 nM; IC50 (HCV replicon 2B; [7]): 0.045 nM; IC50 (HCV replicon 1AQ30D; [2]): 0.044 nM
COC(=O)N[C@H](C(=O)N1CCC[C@H]1c1ncc(-c2cc(F)c3c(c2)OC(c2cc4ccccc4s2)n2c-3cc3cc(-c4cnc([C@@H]5C[C@H]6C[C@H]6N5C(=O)[C@@H](NC(=O)OC)C(C)C)[nH]4)ccc32)[nH]1)C(C)C (single isomer, unassigned) [Compound 615]	–	–	–	–	–	–	IC50 (HCV replicon 1AY93H; [3]): 0.045 nM; IC50 (HCV replicon 1A; HCV replicon 1A): 0.0023 nM; IC50 (HCV replicon 2B; [4]): 1.08 nM; IC50 (HCV replicon 1AQ30D; [5]): 0.844 nM; IC50 (HCV replicon 1B; [8]): 0.0019 nM
CCc1ccc(C2Oc3cc(-c4cnc([C@@H]5CCCN5C(=O)C(NC(=O)OC)C5CCOC(C)(C)C5)[nH]4)cc(F)c3-c3cc4cc(-c5cnc([C@@H]6CCCN6C(=O)[C@@H](NC(=O)OC)C(C)C)[nH]5)ccc4n32)s1 (single isomer, unassigned) [Compound 162]	0.004	–	0.006	–	0.0022	0.027	IC50 (HCV replicon 1B; replicon 1B): 0.0019 nM
COC(=O)NC(C(=O)N1CCC[C@H]1c1ncc(-c2cc(F)c3c(c2)OC(c2ccc(C4CC4)s2)n2c-3cc3cc(-c4cnc([C@@H]5CCCN5C(=O)C(NC(=O)OC)C5C[C@@H](C)O[C@@H](C)C5)[nH]4)ccc32)[nH]1)C1C[C@@H](C)O[C@@H](C)C1 (single isomer, unassigned) [Compound 301]	0.11	–	–	0.002	0.0025	–	IC50 (HCV replicon 2B; [7]): 0.037 nM; IC50 (HCV replicon 1AQ30D; [2]): 0.33 nM
COC(=O)NC(C(=O)N1[C@@H]2C[C@@H]2C[C@H]1c1ncc(-c2ccc3c(c2)cc2n3C(c3ccc(C4CC4)s3)Oc3cc(-c4cnc([C@@H]5CCCN5C(=O)[C@@H](NC(=O)OC)C(C)C)[nH]4)cc(F)c3-2)[nH]1)C1CCOC(C)(C)C1 (single isomer, unassigned) [Compound 276]	0.001	0.0015	0.005	0.0024	–	–	IC50 (HCV replicon 1AQ30D; [2]): 0.018 nM
COC(=O)NC(C(=O)N1CCC[C@H]1c1ncc(-c2ccc3c(c2)cc2n3C(c3ccc(CC4CC4)s3)Oc3cc(-c4cnc([C@@H]5CCCN5C(=O)[C@@H](NC(=O)OC)C(C)C)[nH]4)cc(F)c3-2)[nH]1)C1CCO[C@H](C)C1 (single isomer, unassigned) [Compound 367]	0.0343	0.0021	0.0223	0.0034	–	0.361	–
CCc1ccc(C2Oc3cc(-c4cnc(C5CCCN5C(=O)C(NC(=O)OC)C5C[C@@H](C)O[C@@H](C)C5)[nH]4)ccc3-c3cc4c(F)c(-c5cnc([C@@H]6CCCN6C(=O)[C@@H](NC(=O)OC)C(C)C)[nH]5)ccc4n32)s1 (single isomer, unassigned) [Compound 359]	0.0826	–	0.0519	0.0019	0.0036	–	IC50 (HCV replicon 1AQ30D; [2]): 0.848 nM
CCc1ccc(C2Oc3cc(-c4cnc([C@@H]5CCCN5C(=O)[C@@H](NC(=O)OC)C(C)C)[nH]4)cc(F)c3-c3cc4cc(-c5cnc([C@@H]6C[C@@H](F)CN6C(=O)C(NC(=O)OC)C6CCOC(C)(C)C6)[nH]5)ccc4n32)s1 (single isomer, unassigned) [Compound 259]	0.002	–	0.32	–	0.0031	0.31	IC50 (HCV replicon 1B; replicon 1B): 0.0033 nM
COC(=O)N[C@H](C(=O)N1CCC[C@H]1c1ncc(-c2cc(C)c3c(c2)OC(c2ccc(C4CC4)s2)n2c-3cc3cc(-c4cnc([C@@H]5C[C@H]6C[C@H]6N5C(=O)[C@@H](NC(=O)OC)C5CCOCC5)[nH]4)ccc32)[nH]1)C(C)C (single isomer, unassigned) [Compound 762]	–	–	–	–	–	–	IC50 (HCV replicon 1AY93H; [3]): 0.005 nM; IC50 (HCV replicon 1A; [9]): 0.002 nM; IC50 (HCV replicon 2B; [4]): 0.0048 nM; IC50 (HCV replicon 1AQ30D; [10]): 0.025 nM; IC50 (HCV replicon 1B; [8]): 0.003 nM
COC(=O)N[C@H](C(=O)N1CCC[C@H]1c1ncc(-c2ccc3c(c2)OC(c2ccc(C4CC4)s2)n2c-3c(F)c3cc(-c4cnc([C@@H]5C[C@H]6C[C@H]6N5C(=O)[C@@H](NC(=O)OC)C(C)C)[nH]4)ccc32)[nH]1)C(C)C (single isomer, unassigned) [Compound 611]	–	–	–	–	–	–	IC50 (HCV replicon 1AY93H; [3]): 0.0115 nM; IC50 (HCV replicon 1A; [9]): 0.0019 nM; IC50 (HCV replicon 2B; [4]): 0.183 nM; IC50 (HCV replicon 1AQ30D; [10]): 0.443 nM; IC50 (HCV replicon 1B; [8]): 0.0014 nM
COC(=O)NC(C(=O)N1[C@@H]2C[C@@H]2C[C@H]1c1ncc(-c2ccc3c(c2)cc2n3C(c3ccc(CC4CC4)s3)Oc3cc(-c4cnc([C@@H]5CCCN5C(=O)[C@@H](NC(=O)OC)C(C)C)[nH]4)cc(F)c3-2)[nH]1)C1CCOC(C)(C)C1 (single isomer, unassigned) [Compound 418]	–	–	–	–	–	–	IC50 (HCV replicon 1AY93H; [3]): 0.093 nM; IC50 (HCV replicon 1A; HCV replicon 1A): 0.0027 nM; IC50 (HCV replicon 2B; [4]): 0.16 nM; IC50 (HCV replicon 1AQ30D; [10]): 0.862 nM; IC50 (HCV replicon 1B; HCV replicon 1B): 0.0027 nM
COC(=O)N[C@H](C(=O)N1CCC[C@H]1c1ncc(-c2cc(F)c3c(c2)OC(c2ccc(C4CC4)s2)n2c-3cc3cc(-c4cnc([C@@H]5CCCN5C(=O)[C@@H](NC(=O)OC)C5CC6(COC6)C5)[nH]4)ccc32)[nH]1)C(C)C (mixture of isomers) [Compound 531]	–	–	–	–	–	–	IC50 (HCV replicon 1AY93H; Hepatitis C virus, read-out: 1A Y93H IC50, HCV replicon 1A Y93H): 0.912 nM; IC50 (HCV replicon 1A; [9]): 0.00909 nM; IC50 (HCV replicon 2B; Hepatitis C virus, read-out: 2B IC50, HCV replicon 2B): 4.32 nM; IC50 (HCV replicon 1AQ30D; [5]): 3.98 nM; IC50 (HCV replicon 1B; [8]): 1.3 nM
CCc1ccc(C2Oc3cc(-c4cnc([C@@H]5CCCN5C(=O)[C@@H](NC(=O)OC)C(C)C)[nH]4)cc(F)c3-c3cc4cc(-c5cnc([C@@H]6C[C@H]7C[C@H]7N6C(=O)C(NC(=O)OC)C6CCOC(C)(C)C6)[nH]5)ccc4n32)s1 (single isomer, unassigned) [Compound 200]	0.002	–	0.014	0.003	0.0021	0.036	–
COC(=O)N[C@H](C(=O)N1CCC[C@H]1c1ncc(-c2cc(F)c3c(c2)OC(c2ccc(C4CC4)s2)n2c-3c(F)c3cc(-c4cnc([C@@H]5CCCC5C(=O)[C@@H](NC(=O)OC)C5CCOCC5)[nH]4)ccc32)[nH]1)C(C)C (single isomer, unassigned) [Compound 362]	0.0775	0.0011	0.0486	0.0018	–	0.981	–
COC(=O)N[C@H](C(=O)N1CCC[C@H]1c1ncc(-c2cc(F)c3c(c2)OC(c2cc(C4CC4)cs2)n2c-3cc3cc(-c4cnc([C@@H]5CCCN5C(=O)[C@@H](NC(=O)OC)C(C)C)[nH]4)ccc32)[nH]1)C(C)C (single isomer, unassigned) [Compound 23]	0.24	0.0032	0.78	0.0039	–	1.75	–
COC(=O)NC(C(=O)N1CCCC1c1ncc(-c2cc(F)c3c(c2)OC(c2cc4c(s2)CC(C)(C)C4)n2c-3cc3cc(-c4cnc(C5CCCN5C(=O)C(NC(=O)OC)C(C)C)[nH]4)ccc32)[nH]1)C(C)C (mixture of isomers) [Compound 846]	–	–	–	–	–	–	IC50 (HCV replicon 1AY93H; HCV replicon 1A Y93H, read-out: 1A Y93H IC50): 0.034 nM; IC50 (HCV replicon 1A; HCV replicon 1A): 0.0029 nM; IC50 (HCV replicon 2B; HCV replicon 2B, read-out: 2B IC50): 0.039 nM; IC50 (HCV replicon 1AQ30D; HCV replicon 1A Q30D, read-out: 1A Q30D IC50): 0.302 nM; IC50 (HCV replicon 1B; HCV replicon 1B): 0.0028 nM
